Experimental data from patent publication US8076487B2, “Pyridone derivative and herbicide” (Kumiai Chemical Industry Co., Ltd., priority 2006, dated 2011).

Columns and labels:
Type in all cases: in vivo
[1] = tested on: barnyardgrass (Echinochloa crus-galli (L.) P. Beauv. var. crus-galli); assay: Test Example 3: herbicidal effect by application to upland field (foliage treatment); settings: 14th day after application; for herbicidal effect, Barnyardgrass: foliage treatment, 1,000 g active ingredient per 1 hectare, greenhouse
Procedure, shortened: (§1)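 Seeds went into pots of field soil and grew under glass for two weeks. The whole plant was then sprayed from above with diluted wettable powder delivering 1,000 g/ha of active ingredient. Plants stayed in the greenhouse, and injury was graded against a standard 14 days after spraying.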

[2] = tested on: slender amaranth (Amaranthus viridis L.); assay: as above; settings: 14th day after application; for herbicidal effect, Slender Amaranth: foliage treatment, 1,000 g active ingredient per 1 hectare, greenhouse
Procedure, shortened: as §1

[3] = tested on: green foxtail (Setaria viridis (L.) P. Beauv.); assay: as above; settings: 14th day after application; for herbicidal effect, Green Foxtail: foliage treatment, 1,000 g active ingredient per 1 hectare, greenhouse
Procedure, shortened: as §1

[4] = tested on: velvetleaf (Abutilon theophrasti medicus); assay: as above; settings: 14th day after application; for herbicidal effect, Velvetleaf: foliage treatment, 1,000 g active ingredient per 1 hectare, greenhouse
Procedure, shortened: as §1

[5] = tested on: barnyardgrass (Echinochloa crus-galli (L.) P. Beauv. var. crus-galli); assay: Test Example 2: herbicidal effect by soil application to upland field; settings: soil surface spray, upland field soil, 1,000 g active ingredient per hectare, 21st day after application
Procedure, shortened: (§2)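 Soil surface treatment after sowing: wettable powder in water, 1,000 g a.i./ha, spray volume 1,000 L/ha. Greenhouse. Scored on a standard herbicidal scale at day 21.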

[6] = tested on: slender amaranth (Amaranthus viridis L.); assay: as above; settings: soil surface spray, upland field soil, 1,000 g active ingredient per hectare, 21st day after application
Procedure, shortened: as §2

[7] = tested on: green foxtail (Setaria viridis (L.) P. Beauv.); assay: as above; settings: soil surface spray, upland field soil, 1,000 g active ingredient per hectare, 21st day after application
Procedure, shortened: as §2

[8] = tested on: velvetleaf (Abutilon theophrasti medicus); assay: as above; settings: soil surface spray, upland field soil, 1,000 g active ingredient per hectare, 21st day after application
Procedure, shortened: as §2

[9] = tested on: heartshape false pickerelweed (Monochoria vaginalis (Burm.f.) C.Presl); assay: Test Example 1: herbicidal effect by soil application to paddy field; settings: paddy field soil application; active ingredient 1,000 g per 1 hectare; wettable powder added dropwise to water surface the day after sowing; examined on the 21st day after application
Procedure, shortened: (§3)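 Plants were sown in flooded (3 cm) paddy soil and evaluated for herbicidal effect 21 days after soil application in a greenhouse.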

[10] = tested on: early watergrass (Echinochloa oryzicola Vasing); assay: as above; settings: paddy field soil application; active ingredient 1,000 g per 1 hectare; wettable powder added dropwise to water surface the day after sowing; examined on the 21st day after application
Procedure, shortened: as §3

[11] = tested on: Japanese bulrush (Scirpus juncoides Roxb.); assay: as above; settings: paddy field soil application; active ingredient 1,000 g per 1 hectare; wettable powder added dropwise to water surface the day after sowing; examined on the 21st day after application
Procedure, shortened: as §3

[12] = foliage treatment, plants grown two weeks, 1,000 g active ingredient per hectare

Row | SMILES | herbicidal effect, Barnyardgrass [1] | herbicidal effect, Slender Amaranth [2] | herbicidal effect, Green Foxtail [3] | herbicidal effect, Velvetleaf [4] | herbicidal effect (index), Barnyardgrass [5] | herbicidal effect (index), Slender Amaranth [6] | herbicidal effect (index), Green Foxtail [7] | herbicidal effect (index), Velvetleaf [8] | herbicidal effect, Monochoria vaginalis (Burm. f.) C. Presl [9] | herbicidal effect, Echinochloa oryzicola Vasing [10] | herbicidal effect, Scirpus juncoides Roxb. [11] | herbicidal effect (index), Barnyardgrass [1, 12] | herbicidal effect (index), Slender Amaranth [2, 12] | herbicidal effect (index), Green Foxtail [3, 12] | herbicidal effect (index), Velvetleaf [4, 12]
1 | O=C1CCCC(O)=C1C(=O)c1ccc(C(F)(F)F)n(CCc2ccccc2)c1=O [I-129] | 5 (90% or more of herbicidal effect and crop phytotoxicity) | 5 (90% or more of herbicidal effect and crop phytotoxicity) | 5 (90% or more of herbicidal effect and crop phytotoxicity) | 5 (90% or more of herbicidal effect and crop phytotoxicity) | 5 (90% or more of herbicidal effect and crop phytotoxicity) | 5 (90% or more of herbicidal effect and crop phytotoxicity) | 4 (70 to less than 90% of herbicidal effect and crop phytotoxicity) | 5 (90% or more of herbicidal effect and crop phytotoxicity) | 4 (70 to less than 90% of herbicidal effect and crop phytotoxicity) | 5 (90% or more of herbicidal effect and crop phytotoxicity) | 5 (90% or more of herbicidal effect and crop phytotoxicity) | – | – | – | –
2 | CCCS(=O)(=O)Oc1c(C(=O)c2ccc(C(F)(F)F)n(CC(F)(F)F)c2=O)cnn1C [IV-10] | 5 (90% or more of herbicidal effect and crop phytotoxicity) | 5 (90% or more of herbicidal effect and crop phytotoxicity) | 4 (70 to less than 90% of herbicidal effect and crop phytotoxicity) | 4 (70 to less than 90% of herbicidal effect and crop phytotoxicity) | 5 (90% or more of herbicidal effect and crop phytotoxicity) | 5 (90% or more of herbicidal effect and crop phytotoxicity) | 5 (90% or more of herbicidal effect and crop phytotoxicity) | 5 (90% or more of herbicidal effect and crop phytotoxicity) | 5 (90% or more of herbicidal effect and crop phytotoxicity) | 5 (90% or more of herbicidal effect and crop phytotoxicity) | 5 (90% or more of herbicidal effect and crop phytotoxicity) | – | – | – | –
3 | CCN(C(=O)OC)n1c(C(F)(F)F)ccc(C(=O)C2=C(O)CCCC2=O)c1=O [I-191] | 5 (90% or more of herbicidal effect and crop phytotoxicity) | 5 (90% or more of herbicidal effect and crop phytotoxicity) | 5 (90% or more of herbicidal effect and crop phytotoxicity) | 5 (90% or more of herbicidal effect and crop phytotoxicity) | 5 (90% or more of herbicidal effect and crop phytotoxicity) | 5 (90% or more of herbicidal effect and crop phytotoxicity) | 5 (90% or more of herbicidal effect and crop phytotoxicity) | 5 (90% or more of herbicidal effect and crop phytotoxicity) | 5 (90% or more of herbicidal effect and crop phytotoxicity) | 5 (90% or more of herbicidal effect and crop phytotoxicity) | 5 (90% or more of herbicidal effect and crop phytotoxicity) | – | – | – | –
4 | O=C1CCCC(O)=C1C(=O)c1ccc(C(F)(F)F)n(-c2ccc(Cl)c(Cl)c2)c1=O [I-98] | – | – | – | – | 5 (90% or more of herbicidal effect and crop phytotoxicity) | 5 (90% or more of herbicidal effect and crop phytotoxicity) | 5 (90% or more of herbicidal effect and crop phytotoxicity) | 5 (90% or more of herbicidal effect and crop phytotoxicity) | 5 (90% or more of herbicidal effect and crop phytotoxicity) | 5 (90% or more of herbicidal effect and crop phytotoxicity) | 5 (90% or more of herbicidal effect and crop phytotoxicity) | 5 (90% or more of herbicidal effect and crop phytotoxicity) | 5 (90% or more of herbicidal effect and crop phytotoxicity) | 5 (90% or more of herbicidal effect and crop phytotoxicity) | 5 (90% or more of herbicidal effect and crop phytotoxicity)
5 | Cn1ncc(C(=O)c2ccc(C(F)(F)F)n(C)c2=O)c1OCc1ccccc1 [IV-190] | 5 (90% or more of herbicidal effect and crop phytotoxicity) | 5 (90% or more of herbicidal effect and crop phytotoxicity) | 4 (70 to less than 90% of herbicidal effect and crop phytotoxicity) | 5 (90% or more of herbicidal effect and crop phytotoxicity) | 5 (90% or more of herbicidal effect and crop phytotoxicity) | 5 (90% or more of herbicidal effect and crop phytotoxicity) | 5 (90% or more of herbicidal effect and crop phytotoxicity) | 5 (90% or more of herbicidal effect and crop phytotoxicity) | 5 (90% or more of herbicidal effect and crop phytotoxicity) | 5 (90% or more of herbicidal effect and crop phytotoxicity) | 5 (90% or more of herbicidal effect and crop phytotoxicity) | – | – | – | –
6 | COCC(C)n1c(C(F)(F)F)ccc(C(=O)C2=C(O)C3CCC(C3)C2=O)c1=O (stereo not shown) [III-21] | 5 (90% or more of herbicidal effect and crop phytotoxicity) | 5 (90% or more of herbicidal effect and crop phytotoxicity) | 5 (90% or more of herbicidal effect and crop phytotoxicity) | 5 (90% or more of herbicidal effect and crop phytotoxicity) | 5 (90% or more of herbicidal effect and crop phytotoxicity) | 5 (90% or more of herbicidal effect and crop phytotoxicity) | 5 (90% or more of herbicidal effect and crop phytotoxicity) | 5 (90% or more of herbicidal effect and crop phytotoxicity) | 5 (90% or more of herbicidal effect and crop phytotoxicity) | 5 (90% or more of herbicidal effect and crop phytotoxicity) | 5 (90% or more of herbicidal effect and crop phytotoxicity) | – | – | – | –
7 | CCOCCn1c(C(F)(F)F)ccc(C(=O)c2cnn(C)c2O)c1=O [IV-34] | 5 (90% or more of herbicidal effect and crop phytotoxicity) | 5 (90% or more of herbicidal effect and crop phytotoxicity) | 5 (90% or more of herbicidal effect and crop phytotoxicity) | 5 (90% or more of herbicidal effect and crop phytotoxicity) | 5 (90% or more of herbicidal effect and crop phytotoxicity) | 5 (90% or more of herbicidal effect and crop phytotoxicity) | 5 (90% or more of herbicidal effect and crop phytotoxicity) | 5 (90% or more of herbicidal effect and crop phytotoxicity) | 5 (90% or more of herbicidal effect and crop phytotoxicity) | 5 (90% or more of herbicidal effect and crop phytotoxicity) | 5 (90% or more of herbicidal effect and crop phytotoxicity) | – | – | – | –
8 | Cn1c(C(F)F)ccc(C(=O)C2=C(O)CCCC2=O)c1=O [I-221] | 5 (90% or more of herbicidal effect and crop phytotoxicity) | 5 (90% or more of herbicidal effect and crop phytotoxicity) | 4 (70 to less than 90% of herbicidal effect and crop phytotoxicity) | 5 (90% or more of herbicidal effect and crop phytotoxicity) | 5 (90% or more of herbicidal effect and crop phytotoxicity) | 5 (90% or more of herbicidal effect and crop phytotoxicity) | 3 (50 to less than 70% of herbicidal effect and crop phytotoxicity) | 5 (90% or more of herbicidal effect and crop phytotoxicity) | 5 (90% or more of herbicidal effect and crop phytotoxicity) | 5 (90% or more of herbicidal effect and crop phytotoxicity) | 5 (90% or more of herbicidal effect and crop phytotoxicity) | – | – | – | –
